Where two headings read alike, the source gives them in different places.
Experiments:
NCI-H716 cells = assay: cells; type: cell-based, Human; settings: concentration response
INS-1E cells = assay: cells; type: cell-based, rat;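 further: secreted insulin quantified by homogeneous immunoassay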
HeLa cells = assay: cells; type: cell-based; settings: for Hela CellCycMod PI 2N IC50/EC50: assay number 14; for Hela CellCycMod PI S Phase IC50/EC50: assay number 15; for Hela CellCycMod PI 4N IC50/EC50: assay number 16; for Hela CellCycMod PI MI IC50/EC50: assay number 17; for Hela CellCycMod PI Cell Number IC50/EC50: assay number 18
[1] = test system: endothelial tube formation in co-cultures of ECFCs and ADSCs treated with VEGF; assay: cells; type: cell-based, human
[2] = test system: ECFC/ADSC co-culture cell nuclei number
DLD-1 = assay: cells; type: cell-based; settings: assay number 23
[3] = test system: HCT116 cells treated with a GSK3β inhibitor; assay: cells; type: cell-based; settings: assay number 26; GSK3b inhibitor pretreated
SNU-C1 = assay: cells; type: cell-based; settings: assay number 30
RKO = assay: cells; type: cell-based; settings: assay number 29
HCT116 = assay: cells; type: cell-based; settings: assay number 25; basal
Colo320 = assay: cells; type: cell-based; settings: assay number 27
SW480 = assay: cells; type: cell-based; settings: assay number 24
HT-29 = assay: cells; type: cell-based; settings: assay number 28
[4] = test system: nuclear β-catenin in C2C12 cells; assay: cells; type: cell-based

For Cc1ccc(C(=O)Nc2ccc(S(=O)(=O)O)c3cc(S(=O)(=O)O)cc(S(=O)(=O)O)c23)cc1NC(=O)c1cccc(NC(=O)Nc2cccc(C(=O)Nc3cc(C(=O)Nc4ccc(S(=O)(=O)O)c5cc(S(=O)(=O)O)cc(S(=O)(=O)O)c45)ccc3C)c2)c1 [NCGC00025177-08], the “IC50/EC50, hNCI-H716 GLP1 Secretion (assay number 12)” value (NCI-H716 cells) was greater than 40 µM.

For CN1C(=O)CC[C@H]1c1cccnc1 [NCGC00093739-13], the “5mMGluc_INS1E SecretionMod IC50/EC50” value (INS-1E cells; assay number 8, 5 mM glucose) was greater than 33.33 µM.

For COCCCOc1ccnc(C[S+]([O-])c2nc3ccccc3[n-]2)c1C.[Na+] (stereo not shown) [NCGC00159518-05], the “IC50/EC50, 5mMGluc_INS1E SecretionMod (assay number 8)” value (“IC50/EC50, 5mMGluc_INS1E SecretionMod” below) (INS-1E cells; 5 mM glucose) was greater than 33.33 µM.

For CN(C)CCN1C(=O)c2ccccc2N(C)c2ccccc21 [NCGC00160395-04], the “IC50/EC50, 5mMGluc_INS1E SecretionMod” value (INS-1E cells; 5 mM glucose) was greater than 33.33 µM.

In the case of CN1CCN(CCC(=O)N2c3ccccc3Sc3ccc(C(F)(F)F)cc32)CC1 [NCGC00160483-02], the “5mMGluc_INS1E SecretionMod IC50/EC50” value (INS-1E cells; assay number 8, 5 mM glucose) is reported as greater than 11.11 µM.

For CCCC(CCC)C(=O)O [NCGC00162288-07], the “IC50/EC50, 5mMGluc_INS1E SecretionMod” value (INS-1E cells; 5 mM glucose) was greater than 33.33 µM.

O=C(CCN1CCN2CCCC2C1)N1c2ccccc2Sc2ccc(Cl)cc21 (stereo not shown) [NCGC00164539-02] was tested, and the “5mMGluc_INS1E SecretionMod IC50/EC50” value (INS-1E cells; assay number 8, 5 mM glucose) was 16.7552 µM.

For CCCN1CCCC[C@H]1C(=O)Nc1c(C)cccc1C [NCGC00164597-02], the “5mMGluc_INS1E SecretionMod IC50/EC50” value (INS-1E cells; assay number 8, 5 mM glucose) was greater than 33.33 µM.

With CCN(CC)CCNC(=O)c1c(C)[nH]c(/C=C2\C(=O)Nc3ccc(F)cc32)c1C [NCGC00164631-05] the “Hela CellCycMod PI 2N IC50/EC50” value (HeLa cells) was greater than 10 µM, the “Hela CellCycMod PI S Phase IC50/EC50” value (HeLa cells) was greater than 10 µM and the “Hela CellCycMod PI 4N IC50/EC50” value (HeLa cells) was greater than 10 µM. The “Hela CellCycMod PI MI IC50/EC50” value (HeLa cells) was 3.8121 µM, the “Hela CellCycMod PI Cell Number IC50/EC50” value (HeLa cells) was 1.2784 µM and the “5mMGluc_INS1E SecretionMod IC50/EC50” value (INS-1E cells; assay number 8, 5 mM glucose) was greater than 33.33 µM. The “VEGF_ADSC\ECFC Angio CD31 TubeArea IC50/EC50” value [1] was 0.0254 µM and the “VEGF_ADSC\ECFC Angio Hoechst NucArea IC50/EC50” value [2] was greater than 10 µM.

Cc1cc(-n2nc3ccc(Cl)cc3n2)c(O)c(C(C)(C)C)c1 [NCGC00166260-03] was tested, and the “5mMGluc_INS1E SecretionMod IC50/EC50” value (INS-1E cells; assay number 8, 5 mM glucose) was greater than 33.33 µM.

With CCN1CCCC(OC(=O)C(c2ccccc2)c2ccccc2)C1 (stereo not shown) [NCGC00178395-04] the “5mMGluc_INS1E SecretionMod IC50/EC50” value (INS-1E cells; assay number 8, 5 mM glucose) was 18.2267 µM.

For C[C@@H](CN(C)C)CN1c2ccccc2Sc2ccccc21.C[C@@H](CN(C)C)CN1c2ccccc2Sc2ccccc21.O=C(O)C(O)C(O)C(=O)O [NCGC00178737-05], the “IC50/EC50, 5mMGluc_INS1E SecretionMod” value (INS-1E cells; 5 mM glucose) was greater than 33.33 µM.

CCN(CC)C(C)CN1c2ccccc2Sc2ccccc21.Cl (stereo not shown) [NCGC00178860-06] was tested, and the “5mMGluc_INS1E SecretionMod IC50/EC50” value (INS-1E cells; assay number 8, 5 mM glucose) was greater than 33.33 µM.

For CC(C(O)c1ccccc1)N(C)CCOC(c1ccccc1)c1ccccc1 (stereo not shown) [NCGC00181913-02], the “5mMGluc_INS1E SecretionMod IC50/EC50” value (INS-1E cells; assay number 8, 5 mM glucose) was greater than 33.33 µM.

With CCO[C@H](Cc1ccc(OCCc2ccc(OS(C)(=O)=O)cc2)cc1)C(=O)O [NCGC00182082-03] the “5mMGluc_INS1E SecretionMod IC50/EC50” value (INS-1E cells; assay number 8, 5 mM glucose) was greater than 33.33 µM.

CN1CCC(N(Cc2cccs2)c2ccccc2)CC1 [NCGC00183847-01] was tested, and the “5mMGluc_INS1E SecretionMod IC50/EC50” value (INS-1E cells) was 20.3958 µM.

With Cc1ccc(-n2nc(C(C)(C)C)cc2NC(=O)Nc2ccc(OCCN3CCOCC3)c3ccccc23)cc1 [NCGC00241104-02] the “5mMGluc_INS1E SecretionMod IC50/EC50” value (INS-1E cells; assay number 8, 5 mM glucose) was greater than 33.33 µM.

With CCCCN(CCCC)C(C(N)=O)c1ccc(OC)cc1 (stereo not shown) [NCGC00261978-01] the “5mMGluc_INS1E SecretionMod IC50/EC50” value (INS-1E cells; assay number 8, 5 mM glucose) was greater than 33.33 µM.

With CCC(CN)=C(c1ccccc1)c1ccccc1.Cl [NCGC00262942-01] the “5mMGluc_INS1E SecretionMod IC50/EC50” value (INS-1E cells; assay number 8, 5 mM glucose) was 10.7785 µM.

In the case of Cc1ccc(O)c([C@H](CCN(C(C)C)C(C)C)c2ccccc2)c1 [NCGC00263557-01], the “5mMGluc_INS1E SecretionMod IC50/EC50” value (INS-1E cells; assay number 8, 5 mM glucose) is reported as greater than 33.33 µM.

Cl.O[C@@H](CNC[C@H](O)[C@H]1CCc2cc(F)ccc2O1)[C@@H]1CCc2cc(F)ccc2O1 [NCGC00263579-01] was tested, and the “Hela CellCycMod PI 2N IC50/EC50” value (HeLa cells) was greater than 10 µM, the “Hela CellCycMod PI S Phase IC50/EC50” value (HeLa cells) was greater than 10 µM and the “Hela CellCycMod PI 4N IC50/EC50” value (HeLa cells) was greater than 10 µM. For the same molecule, the “Hela CellCycMod PI MI IC50/EC50” value (HeLa cells) was greater than 10 µM, the “Hela CellCycMod PI Cell Number IC50/EC50” value (HeLa cells) was 5.565 µM and the “Basal_Viability ATP DLD-1 IC50/EC50” value (DLD-1) was 15.2632 µM. For the same molecule, the “GSK3b inh pretreated_Viability ATP HCT116 IC50/EC50” value [3] was 2.3971 µM, the “Basal_Viability ATP SNU-C1 IC50/EC50” value (SNU-C1) was 5.0932 µM and the “VEGF_ADSC\ECFC Angio CD31 TubeArea IC50/EC50” value [1] was greater than 10 µM. The “Basal_Viability ATP RKO IC50/EC50” value (RKO) was 3.2799 µM, the “Basal_Viability ATP HCT116 IC50/EC50” value (HCT116) was 6.4812 µM and the “Basal_Viability ATP Colo 320 IC50/EC50” value (Colo320) was greater than 20 µM. The “Basal_Viability ATP SW480 IC50/EC50” value (SW480) was 3.6015 µM, the “Basal_Viability ATP HT-29 IC50/EC50” value (HT-29) was 4.5046 µM and the “VEGF_ADSC\ECFC Angio Hoechst NucArea IC50/EC50” value [2] was greater than 10 µM.

In the case of CNC(=O)c1cc(Oc2ccc(NC(=O)Nc3ccc(Cl)c(C(F)(F)F)c3)cc2)ccn1 [Sorafenib, reference compound], the “activity in the Wnt potentiation module (in words)” value [4] is reported as “None of these agents, however, possessed appreciable activity”.
